How the values were obtained:
[1] = molecular target: T1, ClpP (Homo sapiens, UniProt Q16740); experiment: In vitro enzyme assay: ClpP peptidase activity with AC-WLA-AMC; assay type: biochemical; conditions: for EC50: EC50 (ClpP proteolytic activity), mean ± SD, n = 3
[2] = tested on: HL60 cells; experiment: Growth inhibition assay; assay type: cell-based
[3] = Liver microsomal stability, human; assay type: in vitro ADME; conditions: human liver microsomes
[4] = Liver microsomal stability, rat; assay type: in vitro ADME; conditions: rat liver microsomes
[5] = PK study, oral 50 mg/kg; assay type: in vivo, ICR mice
[6] = molecular target: T1, ClpP; experiment: Biolayer interferometry; assay type: binding
[7] = molecular target: ClpP in HL60 cells (Homo sapiens, UniProt Q16740); experiment: Cellular thermal shift assay; assay type: cell-based; conditions: 10 μM, 6 h, vs control group
[8] = molecular target: ClpP in MOLM13 cells (Homo sapiens, UniProt Q16740); experiment: Cellular thermal shift assay; assay type: cell-based; conditions: 10 μM, 6 h, vs control group
[9] = tested on: SDHB and NDUFA12 in HL60 cells; experiment: Western blotting of respiratory chain proteins, HL60; assay type: cell-based; conditions: 36 h
[10] = tested on: SDHB and NDUFA12 in MOLM13 cells; experiment: Western blotting of respiratory chain proteins, MOLM13; assay type: cell-based; conditions: 36 h
[11] = tested on: HL60 cells; experiment: Mitochondrial ROS; assay type: cell-based; conditions: HL60, 5 nM, 38 h, vs DMSO group
[12] = tested on: MOLM13 cells; experiment: Mitochondrial ROS; assay type: cell-based; conditions: MOLM13, 38 h
[13] = tested on: HL60 cells; experiment: Mitochondrial membrane potential; assay type: cell-based; conditions: HL60, 10 nM, 48 h, vs DMSO group
[14] = tested on: MOLM13 cells; experiment: Mitochondrial membrane potential; assay type: cell-based; conditions: MOLM13, 10 nM, 48 h, vs DMSO group
[15] = tested on: HL60 cells; experiment: Cell cycle analysis; assay type: cell-based; conditions: 24 h
[16] = tested on: MOLM13 cells; experiment: Cell cycle analysis; assay type: cell-based; conditions: MOLM13, 24 h
[17] = tested on: MOLM13 cells; experiment: MOLM13-disseminated leukemia model, survival; assay type: in vivo, NSG mice; conditions: 10 mg/kg, p.o, qd, 18 days
[18] = tested on: HL60 cells; experiment: HL60-disseminated leukemia model, survival; assay type: in vivo, NSG mice
[19] = Liver microsomal stability, mice; assay type: in vitro ADME
[20] = female, ICR, mouse, plasma, po, 50 mg/kg

T1 sequence (Q16740 57-277): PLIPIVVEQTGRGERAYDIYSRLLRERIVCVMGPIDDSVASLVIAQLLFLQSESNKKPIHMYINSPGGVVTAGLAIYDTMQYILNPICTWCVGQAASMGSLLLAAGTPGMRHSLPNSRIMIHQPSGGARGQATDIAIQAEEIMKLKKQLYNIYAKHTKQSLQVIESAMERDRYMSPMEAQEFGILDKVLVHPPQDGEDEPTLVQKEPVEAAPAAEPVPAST
Chain of ClpP in HL60 cells (Q16740 57-277): as above
Chain of ClpP in MOLM13 cells (Q16740 57-277): as above

For `CC(c1ccc(C(F)(F)F)cc1)N1C(=O)C2=C(CCN(Cc3ccccc3)C2)N2CCN=C21` (stereo not shown) [compound 3], the EC50 [1] was 2659 ± 11.7 nM.

With `CC(c1ccccc1)N1CCC2=C(C1)C(=O)N(Cc1ccc(C(F)(F)F)cc1)C1=NCCN12` (stereo not shown) [compound 2] the EC50 [1] was 193 ± 18.9 nM.

For `C[C@@H]1CC2=C(CN1Cc1cccc(C#N)c1)C(=O)N(Cc1ccc(Br)cc1)C1=NCCN12` [CLPP-1071, (R)-3-((4-(4-Bromobenzyl)-8-methyl-5-oxo-1,2,4,5,8,9-hexahydroimidazo[1,2-a]pyrido[3,4-e]pyrimidin-7(6H)-yl)methyl)benzonitrile], the EC50 [1] was 23.5 nM, the “ClpP agonistic activity, fold stronger than ONC201” value ([1]; vs ONC201) was 107.1 fold and the IC50 ([2]; read-out: HL60 IC50, HL60 cells, 72 h, mean ± SD, n = 3, listed as 52a) was 4.61 ± 0.21 nM. For the same molecule, the “inhibition of proliferation of HL60 cells, fold stronger than ONC201” value ([2]; vs ONC201) was 169.2 fold, the “Clapp” value [3] was 296 mL/min/kg and the “Clh” value [3] was 19.3 mL/min/kg. For the same molecule, the “Eh (%)” value [3] was 93.5%, the half-life [3] was 13.7 min and the “Clapp” value [4] was 906 mL/min/kg. The “Clh” value [4] was 52.0 mL/min/kg, the “Eh (%)” value [4] was 94.3% and the half-life [4] was 6.89 min. For the same molecule, the “AUC0–∞, times higher than that of ONC212” value ([5]; PO 50 mg/kg, mice) was “approximately 1.5 times”, the AUC(0-inf) [5, 20] was 9840 ± 990 ng·h/mL and the AUC(0-t) [5, 20] was 9010 ± 1320 ng·h/mL. For the same molecule, the Cmax [5, 20] was 3420 ± 570 ng/mL, the MRT [5, 20] was 157 ± 24.6 min and the Tmax [5, 20] was 30 ± 25.8 min. The half-life [5, 20] was 87 ± 19.8 min, the Kd [6] was 26.9 nM and the “thermal stability of ClpP (CETSA)” value [7] was “effectively stabilized ClpP protein at higher temperatures”. For the same molecule, the “thermal stability of ClpP (CETSA)” value [8] was “effectively stabilized ClpP protein at higher temperatures”, the “SDHB and NDUFA12 protein levels” value ([9]; HL60, 1 nM) was “decreased” and the “SDHB and NDUFA12 protein levels” value ([9]; HL60, 10 nM) was “mostly disappeared”. For the same molecule, the “SDHB and NDUFA12 protein levels” value ([10]; MOLM13, 1 nM) was “decreased”, the “SDHB and NDUFA12 protein levels” value ([10]; MOLM13, 10 nM) was “mostly disappeared” and the ROS accumulation [11] was “pronounced elevation in ROS accumulation”. The ROS levels [12] was “significant increase in the ROS levels”, the “mitochondrial membrane potential (MMP)” value [13] was “significantly decreased MMP” and the “mitochondrial membrane potential (MMP)” value [14] was “significantly decreased MMP”. The “percentage of cells arrested in G1” value ([15]; HL60, 10 nM) was 50%, the “percentage of cells arrested in G1” value ([15]; HL60, 100 nM) was 60% and the “percentage of cells arrested in G1” value ([16]; higher dose (dose not given)) was 73%. For the same molecule, the “percentage of cells arrested in G1” value ([16]; lower dose (dose not given)) was 65%, the “survival of female NSG mice” value [17] was “extended the survival” and the “survival of female NSG mice” value ([18]; HL60 model, 5 and 10 mg/kg, p.o, qd, 19 days) was “dose-dependently extended the survival”. The “survival periods in mice” value ([18]; disseminated model, 5 mg/kg, stronger effects compared to 10 mg/kg ONC212) was “significantly prolonged survival periods”.

For `C[C@]12CC[C@H]3[C@@H](CCC4=CC(=O)CC[C@@]43C)[C@@H]1CC[C@@H]2O` [testosterone, reference compound], the “Clapp” value [3] was 467 mL/min/kg, the “Clh” value [3] was 19.8 mL/min/kg and the “Eh (%)” value [3] was 95.8%. The “Clapp” value ([19]; mice liver microsomes) was 8634 mL/min/kg, the “Clh” value ([19]; mice liver microsomes) was 54.8 mL/min/kg and the “Eh (%)” value ([19]; mice liver microsomes) was 99.4%. The half-life ([19]; mouse, liver microsomes) was 0.723 min, the “Clapp” value [4] was 8634 mL/min/kg and the “Clh” value [4] was 54.8 mL/min/kg. The “Eh (%)” value [4] was 99.4% and the half-life [4] was 0.723 min.

Molecule `CC1(C)CN(Cc2ccccc2)CC2=C1N1CCN=C1N(Cc1ccc(C(F)(F)F)cc1)C2=O` [compound 5] has an EC50 [1] of 1650 ± 84.5 nM.

In the case of `CC1CN(Cc2ccccc2)CC2=C1N1CCN=C1N(Cc1ccc(C(F)(F)F)cc1)C2=O` (stereo not shown) [compound 4], the EC50 [1] is reported as 1410 ± 20.5 nM.

Reference: article PMC11647907 (Journal of Medicinal Chemistry, 2024)
